On the set-up of data set [1]: method as in PMID 35934135. The settings on record: cited from earlier work; for toxicity category, Globally Harmonized System of Classification and Labelling of Chemicals: acute toxicity; for deaths in acute toxicity experiments: dose of 2000 mg/kg.
Data set [2] has as its system polychromatic erythrocytes (PCE) from Swiss mice. Put plainly: Micronucleus assay in vivo. Also noted: species or system Mus musculus. Conditions: intraperitoneally, 500, 1000 and 2000 mg/kg, blood 48 h after administration. As to the method: Forty female Mus musculus mice (Swiss strain) were used. The animals were divided into 8 groups, with 5 animals each: G1—negative control (NC) treated with the vehicle solution intraperitoneally; G2—positive control (PC) treated intraperitoneally with cyclophosphamide at a dose of 30 mg/kg; groups exposed to the BV3 derivative—Group BV3—I intraperitoneally at doses of 2000 mg/kg; Group BV3—II 1000 mg/kg; Group BV3—III 500 mg/kg; and groups exposed to BV5—Group BV5—I, received BV5 intraperitoneally at doses of 2000 mg/kg; Group BV5—II 1000 mg/kg; and Group BV5—III 500 mg/kg. For the comet assay, approximately 0.5 mL of blood from each animal was collected via the tail vein 6–8 h after administration of the compounds. For the micronucleus test, 1 mL of blood from each animal was collected by cardiac puncture 48 h after administration of the compounds. For that collection, the mice were anesthetized with ketamine (100 mg/kg) and xylazine (10 mg/kg), intraperitoneally. […]
The same mice from the comet test (females n = 40) were used, equally with the 8 experimental groups mentioned above. […] Two slides were prepared per animal, in which 2000 polychromatic erythrocytes (PCE) were analyzed for the presence of micronuclei. The analysis was carried out using a Zeiss Axio Imager M2 fluorescence microscope, with a 40× objective and Alexa Fluor 488 filter (Carl Zeiss AG™, Germany).

Turning to `CC1(C)CCC2=C(O1)c1ccccc1/C(=N/NC(=S)Nc1ccc([N+](=O)[O-])cc1)C2=O` [BV3, 2-(2,2-dimethyl-5-oxo-3,4-dihydro-2H-benzo[h]chromen-6(5H)-ylidene)-N-(4nitrophen-yl)thio-carbohydrazide], in data set [1], the “toxicity category, Globally Harmonized System of Classification and Labelling of Chemicals” value is on record as “Category 5”; the “deaths in acute toxicity experiments” value is given as “no deaths”. Moreover, the “number of micronuclei compared to negative control” value in data set [2] was “no differences”.
For the molecule `Cc1ccc(NC(=S)N/N=C2\C(=O)C3=C(OC(C)(C)CC3)c3ccccc32)cc1` [BV5, 2-(2,2-dimethyl-5-oxo-3,4-dihydro-2H-benzo[h]chromen-6(5H)-ylidene)-N-(p-tolyl)-thiocarbohydrazide], in data set [1], the “toxicity category, Globally Harmonized System of Classification and Labelling of Chemicals” value was “Category 5”; the “deaths in acute toxicity experiments” value is on record as “no deaths”. Besides, in data set [2], the “number of micronuclei compared to negative control” value is listed as “no differences”.

The values above are taken from PMC12196213, “New Insights into the Anticancer Effects and Toxicogenomic Safety of Two β-Lapachone Derivatives” (Pharmaceuticals, 2025).
